Assay results from patent publication US11584744B2 (UNIVERSITY OF WASHINGTON, priority 2017, dated 2023).
≈ marks a conversion by molar mass, not a printed value. Where “and” joins values, the source holds several entries; their conditions need not be identical. Equal entries are not always repeated. Where two headings read alike, the source gives them in different places.

Columns and labels:
[1] = system: C. parvum; experiment: C. parvum growth inhibition; format: cell-based, Cryptosporidium parvum; settings: read-out: (J) C. parvum EC50
[2] = system: S. aureus MRSA (ATCC 33591); experiment: MIC susceptibility testing; format: cell-based, Staphylococcus aureus; settings: for MIC: Staphylococcus aureus, read-out: (G) MRSA (ATCC33591) MIC
Method in brief: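 CLSI broth microdilution in triplicate, 5×10^5 CFU/mL final, ≤0.5% DMSO; MHB for S. aureus, CA-MHB for E. coli and E. faecium, CA-MHB plus 3% laked horse blood for S. pyogenes (5% CO2).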

[3] = system: S. aureus MSSA (ATCC 29213); experiment: MIC susceptibility testing; format: cell-based, Staphylococcus aureus; settings: for MIC: Staphylococcus aureus, read-out: (F) S. aureus (ATCC 29213) MIC
[4] = target: MetRS (C. parvum) (Cryptosporidium parvum, UniProt Q5CVN0); experiment: MetRS (C. parvum) enzyme inhibition; format: biochemical
[5] = system: T. cruzi; experiment: T. cruzi growth inhibition; format: cell-based, Trypanosoma cruzi; settings: Trypanosoma cruzi; read-out: (E) T. cruzi EC50
[6] = target: T1, MetRS (T. brucei) (Trypanosoma brucei brucei, UniProt Q38C91); experiment: MetRS (T. brucei) enzyme inhibition; format: biochemical
T1 sequence (Q38C91 1-773): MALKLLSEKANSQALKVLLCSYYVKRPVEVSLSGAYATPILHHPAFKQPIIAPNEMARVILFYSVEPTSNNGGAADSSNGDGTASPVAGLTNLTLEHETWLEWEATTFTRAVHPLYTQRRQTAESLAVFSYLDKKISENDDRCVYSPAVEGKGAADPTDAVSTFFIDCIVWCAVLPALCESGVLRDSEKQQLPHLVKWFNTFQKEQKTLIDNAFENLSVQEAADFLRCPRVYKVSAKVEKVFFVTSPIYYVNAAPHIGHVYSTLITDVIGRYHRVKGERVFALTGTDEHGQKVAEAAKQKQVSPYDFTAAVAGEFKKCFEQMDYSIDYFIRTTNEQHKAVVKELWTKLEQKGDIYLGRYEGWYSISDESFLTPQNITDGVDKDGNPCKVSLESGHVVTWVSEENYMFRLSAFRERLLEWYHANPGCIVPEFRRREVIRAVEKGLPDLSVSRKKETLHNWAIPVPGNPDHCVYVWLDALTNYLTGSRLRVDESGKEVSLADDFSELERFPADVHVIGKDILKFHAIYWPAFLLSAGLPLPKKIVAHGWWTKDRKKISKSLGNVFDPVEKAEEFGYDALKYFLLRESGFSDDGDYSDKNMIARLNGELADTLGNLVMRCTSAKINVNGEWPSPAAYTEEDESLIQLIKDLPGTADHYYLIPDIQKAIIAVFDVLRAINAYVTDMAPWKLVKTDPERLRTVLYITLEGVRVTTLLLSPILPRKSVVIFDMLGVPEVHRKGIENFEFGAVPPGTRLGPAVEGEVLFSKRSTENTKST

[7] = system: E. faecium VRE (ATCC 51559); experiment: MIC susceptibility testing; format: cell-based, Enterococcus faecium; settings: for MIC: Enterococcus faecium, read-out: (I) E. faecium (ATCC 51559) MIC
Text: Media and culture conditions. Mueller Hinton broth (MHB), cation adjusted Mueller Hinton broth (CA-MHB), and Brain Heart Infusion broth (BHI) were purchased from Becton Dickinson (Franklin Lakes, N.J.). Tryptic soy agar (TSA) plates, TSA with 5% sheep blood plates, and CA-MHB with 3% laked horse blood were purchased from Remel (San Diego, Calif.). MHB was used to assay all Staphylococcus aureus strains. CA-MHB was used for Staphylococcus epidermidis, Enterococcus faecalis, Enterococcus faecium, Escherichia coli, and Pseudomonas aeruginosa. CA-MHB supplemented with 3% laked horse blood was used for Streptococcus pneumoniae and Streptococcus pyogenes. Staphylococcus, Enterococcus, Escherichia, and Pseudomonas strains were cultured at 37° C. with ambient air. Streptococcus strains were cultured in 37° C. with 5% CO2. Separate conditions for radiolabeled precursor uptake assays are described below.
Susceptibility testing: Minimum inhibitory concentration (MIC) determinations were performed in triplicate in 96-well round bottom microtiter plates (Corning, Corning N.Y.) as described by the Clinical and Laboratory Standards Institute (CLSI). Serial two-fold dilutions of compounds were added to plates in 50 μL volumes. An additional 50 μL of media containing bacterial cells (1×10^6 CFUs/mL) was then added to each well. Maximum DMSO concentrations were 0.5%. Plates were incubated at 37° C. for at least 18 h before reading the susceptibility result by optical absorbance (OD600) using a BioTek ELx800. The lowest concentration causing ≥90% growth inhibition compared to the untreated control was recorded as the MIC (and also corresponded to the visual MIC). MICs were measured at least twice and the higher value (if different) was recorded herein.

[8] = system: T. brucei; experiment: T. brucei growth inhibition; format: cell-based, Trypanosoma brucei; settings: read-out: (D) T. brucei EC50
[9] = read-out: (C) MetRS (C. parvum) IC50

MetRS (C. parvum), sequence (Q5CVN0 entry or part of it): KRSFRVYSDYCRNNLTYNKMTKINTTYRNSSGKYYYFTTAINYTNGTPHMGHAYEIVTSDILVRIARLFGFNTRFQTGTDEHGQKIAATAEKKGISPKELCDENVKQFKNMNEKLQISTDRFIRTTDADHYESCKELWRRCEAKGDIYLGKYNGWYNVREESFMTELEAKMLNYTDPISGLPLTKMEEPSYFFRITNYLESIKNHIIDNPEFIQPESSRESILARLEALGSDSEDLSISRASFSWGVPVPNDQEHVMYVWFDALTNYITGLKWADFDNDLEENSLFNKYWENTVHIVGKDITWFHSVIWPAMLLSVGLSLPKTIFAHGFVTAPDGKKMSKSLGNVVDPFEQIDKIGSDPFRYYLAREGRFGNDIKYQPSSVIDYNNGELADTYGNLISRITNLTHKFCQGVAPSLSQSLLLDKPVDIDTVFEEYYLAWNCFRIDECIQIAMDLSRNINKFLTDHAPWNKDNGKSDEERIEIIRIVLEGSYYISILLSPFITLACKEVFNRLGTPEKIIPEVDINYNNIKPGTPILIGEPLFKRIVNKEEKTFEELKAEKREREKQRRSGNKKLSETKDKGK

Structure (SMILES)	EC50 ([1]; Cryptosporidium parvum) [nM]	EC50 [1] [nM]	MIC ([2]; MRSA ATCC33591) [µg/mL]	MIC ([3]; S. aureus ATCC 29213) [µg/mL]	IC50 [4, 9] [nM]	EC50 [5] [nM]	IC50 [6] [nM]	MIC ([7]; E. faecium ATCC 51559) [µg/mL]	EC50 ([8]; Trypanosoma brucei) [nM]	(G) MRSA (ATCC33591) MIC ([2]; MRSA ATCC33591) [µg/mL]	(F) S. aureus (ATCC 29213) MIC ([3]; S. aureus ATCC 29213)	MIC [2] [µg/mL]	MIC [3] [µg/mL]	IC50 [4] [nM]	MIC [7] [µg/mL]	EC50 [8] [nM]	MIC ([2]; ATCC33591|MRSA, MRSA ATCC33591) [µg/mL]	MIC ([3]; ATCC29213|MSSA, S. aureus ATCC 29213) [µg/mL]	(I) E. faecium (ATCC 51559) MIC ([7]; E. faecium ATCC 51559) [µg/mL]	MIC ([7]; ATCC51559|VRE, E. faecium ATCC 51559) [µg/mL]
COc1ccc(-c2ccc(NC(C)=O)c3nc(Cc4nc5cc(Cl)ccc5[nH]4)cn23)c(Cl)c1 [Compound 2180, N-{2-[(6-chloro-1H-1,3-benzodiazol-2-yl)methyl]-5-(2-chloro-4-methoxyphenyl)imidazo[1,2-a]pyridin-8-yl}acetamide]	656	640	0.515 (≈ 1.07 µM)	0.362 (≈ 0.754 µM)	< 40	179	< 40	0.357 (≈ 0.743 µM)	18.5											
COc1ccc(-c2nccc3nn(Cc4nc5nc(Cl)ccc5[nH]4)cc23)c(Cl)c1 [Compound 2247, 2-({5-chloro-1H-imidazo[4,5-b]pyridin-2-yl}methyl)-4-(2-chloro-4-methoxyphenyl)-2H-pyrazolo[4,3-c]pyridine]	> 2000		1.46 (≈ 3.43 µM)	1.18 (≈ 2.77 µM)	218	1650		1.08 (≈ 2.54 µM)	200	1.58	1.43 µg/mL									
Clc1ccc(Cc2cn(Cc3nc4nc(Cl)ccc4[nH]3)cn2)c(Cl)c1 [Compound 2189, 1-({5-chloro-1H-imidazo[4,5-b]pyridin-2-yl}methyl)-4-[(2,4-dichlorophenyl)methyl]-1H-imidazole]	2000					156	< 40		7.9			0.596 (≈ 1.52 µM)	0.676 (≈ 1.72 µM)	< 40	0.704 (≈ 1.79 µM)					
COc1ccc(-c2cccc3c2CN(Cc2nc4nc(Cl)ccc4[nH]2)C3)c(Cl)c1 [Compound 2224, 5-chlor0-2-((4-(2-chloro-4-methoxyphenyl)isoindolin-2-yl)methyl)-1H-imidazo[4,5-b]pyridine]	> 2000		1.17 (≈ 2.75 µM)	1.07 (≈ 2.52 µM)	< 40	174	52	0.995 (≈ 2.34 µM)	23.7		1.37 µg/mL									
CCn1c(C(O)c2ccc(Cl)cc2Cl)cn(Cc2nc3nc(Cl)ccc3[nH]2)c1=O (stereo not shown) [Compound 2204, 1-({5-chloro-1H-imidazo[4,5-b]pyridin-2-yl}methyl)-4-[(2,4-dichlorophenyl)(hydroxy)methyl]-3-ethyl-2,3-dihydro-1H-imidazol-2-one]	1920		0.293 (≈ 0.647 µM)	1.11 (≈ 2.45 µM)	82.5	366	53	0.167 (≈ 0.369 µM)	6.38		0.927 µg/mL									
NC(=O)Cn1c(C(=O)c2ccc(Cl)cc2Cl)cn(Cc2nc3ccc(Cl)nc3[nH]2)c1=O [Compound 2234, 2-[3-({5-chloro-1H-imidazo[4,5-b]pyridin-2-yl}methyl)-5-(2,4-dichlorobenzoyl)-2-oxo-2,3-dihydro-1H-imidazol-1-yl]acetamide]	> 2000		> 8		< 40	2100		1.06 (≈ 2.21 µM)	9.17							7.98				
COc1cc(Cl)c(-c2cnn3c2CN(Cc2nc4nc(Cl)ccc4[nH]2)CC3)cc1OC [Compound 2205, 5-chlor0-2-((3-(2-chloro-4,5-dimethoxyphenyl)-6,7-dihydropyrazolo[1,5-a]pyrazin-5(4H)-yl)methyl)-1H-imidazo[4,5-b]pyridine]	> 2000		0.265 (≈ 0.577 µM)	0.652 (≈ 1.42 µM)	65.2	109	< 40	0.0839 (≈ 0.183 µM)	12.4		0.441, μg/ml and 0.450 μg/ml									
COc1ccc(-c2cnn3c2CN(Cc2nc4nc(Cl)ccc4[nH]2)CC3)c(Cl)c1 [Compound 2172, 5-chlor0-2-((3-(2-chloro-4-methoxyphenyl)-6,7-dihydropyrazolo[1,5-a]pyrazin-5(4H)-yl)methyl)-1H-imidazo[4,5-b]pyridine]			1.32 (≈ 3.07 µM)	1.69 (≈ 3.94 µM)	< 40	213	< 40	0.467 (≈ 1.09 µM)	29.3		0.898 µg/mL					35				
COc1ccc(-c2cccc3c2CN(Cc2nc4cc(Cl)ccc4[nH]2)C3=O)c(Cl)c1 [Compound 2232, 2-((5-chloro-1H-benzo[d]imidazol-2-yl)methyl)-4-(2-chloro-4-methoxyphenyl)isoindolin-1-one]	> 2000		0.448 (≈ 1.02 µM)		53.9	244		0.415 (≈ 0.947 µM)	71.3											
CCNC(=O)Cn1c(C(=O)c2ccc(Cl)cc2Cl)cn(Cc2nc3nc(Cl)ccc3[nH]2)c1=O [Compound 2227, 2-[3-({5-chloro-1H-imidazo[4,5-b]pyridin-2-yl}methyl)-5-(2,4-dichlorobenzoyl)-2-oxo-2,3-dihydro-1H-imidazol-1-yl]—N-ethylacetamide]	> 2000		0.482 (≈ 0.949 µM)	1.07 (≈ 2.11 µM)	< 40	819		0.175 (≈ 0.345 µM)	< 0.91							1.47				
CCOC(=O)Nn1c(C(=O)c2ccc(Cl)cc2Cl)cn(Cc2nc3ccc(Cl)nc3[nH]2)c1=O [Compound 2244]	> 2000				< 40	541					2.21 µg/mL						1.57 (≈ 3.08 µM)	1.66 (≈ 3.26 µM)	0.555	0.531 (≈ 1.04 µM)
COc1ccc(Cc2cn(Cc3nc4nc(Cl)ccc4[nH]3)c(=O)n2CC(C)(C)N)c(Cl)c1 [Compound 2208, 3-(2-amin0-2-methylpropyl)-1-({5-chloro-1H-imidazo[4,5-b]pyridin-2-yl}methyl)-4-[(2-chloro-4-methoxyphenyl)methyl]-2,3-dihydro-1H-imidazol-2-one]	> 2000		1.8 (≈ 3.79 µM)	2.4 (≈ 5.05 µM)	< 40	297	< 40	0.28 (≈ 0.589 µM)			1.53 µg/mL									
COc1ccc(-c2cccc3c2CN(Cc2nc4c(C#N)c(Cl)ccc4[nH]2)C3)c(Cl)c1 [Compound 2229, 5-chlor0-2-((4-(2-chloro-4-methoxyphenyl)isoindolin-2-yl)methyl)-1H-benzo[d]imidazole-4-carbonitrile]	1980		0.762 (≈ 1.7 µM)	0.926 (≈ 2.06 µM)	84.7	650		0.327 (≈ 0.728 µM)	91.4											
